Test results taken from patent US20220073496A1, “NOVEL QUINOLINE DERIVATIVE INHIBITOR” (Nanjing Transthera Biosciences Co., Ltd., priority 2018, published 2022).

These molecules were tested against T1, Axl (h) (Homo sapiens, UniProt P30530) (assay: Enzymatic activity test, Axl (h)). Settings: 10 μM [γ-33P]-ATP, 40 minutes, room temperature.
T1 construct: purchased
T1 sequence (P30530 26-894): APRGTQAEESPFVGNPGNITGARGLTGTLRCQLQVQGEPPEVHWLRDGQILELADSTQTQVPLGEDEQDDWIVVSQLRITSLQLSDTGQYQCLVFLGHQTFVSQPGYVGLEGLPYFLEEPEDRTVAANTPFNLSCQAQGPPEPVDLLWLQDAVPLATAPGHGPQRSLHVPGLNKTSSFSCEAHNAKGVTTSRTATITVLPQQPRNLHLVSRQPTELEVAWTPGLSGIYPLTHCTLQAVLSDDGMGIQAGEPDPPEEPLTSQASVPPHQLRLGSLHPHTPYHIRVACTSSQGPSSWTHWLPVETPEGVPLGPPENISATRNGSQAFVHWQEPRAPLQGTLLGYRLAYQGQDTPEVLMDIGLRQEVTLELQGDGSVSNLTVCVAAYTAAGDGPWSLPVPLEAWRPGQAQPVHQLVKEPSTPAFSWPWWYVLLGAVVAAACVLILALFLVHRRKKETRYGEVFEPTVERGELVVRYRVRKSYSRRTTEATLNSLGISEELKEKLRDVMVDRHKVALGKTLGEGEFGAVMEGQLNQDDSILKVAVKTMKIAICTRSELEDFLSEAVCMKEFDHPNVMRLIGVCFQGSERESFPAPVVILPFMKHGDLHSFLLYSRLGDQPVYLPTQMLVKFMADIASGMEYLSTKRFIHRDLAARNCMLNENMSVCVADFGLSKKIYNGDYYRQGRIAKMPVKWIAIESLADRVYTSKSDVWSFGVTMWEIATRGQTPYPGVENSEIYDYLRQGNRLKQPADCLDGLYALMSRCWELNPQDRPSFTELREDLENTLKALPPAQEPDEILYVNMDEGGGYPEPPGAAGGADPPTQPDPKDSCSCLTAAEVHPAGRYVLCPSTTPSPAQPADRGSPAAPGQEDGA
Assay type: biochemical
Description: Assay 3: Enzymatic Activity Test of the Compounds of the Present Invention
Test substances: the compounds of the present invention, wherein the structures and preparations thereof were as described above.
(1) Preparation of the Compound Stock Solution
The compound was dissolved in 100% DMSO to prepare a stock solution with a maximum concentration of 500 μM.
(2) Preparation of the Compound Working Solution
The compound stock solution was diluted to final concentrations of 500, 150, 50, 15, 5, 1.5, 0.5, 0.15 and 0.05 μM to become the compound working solutions (50×).
(3) Preparation of Different Enzyme Reaction Solutions
The Axl (h) enzyme was dissolved in 8 mM MOPS (pH 7.0), 0.2 mM EDTA, and 250 μM KKSRGDYMTMQIG to prepare an enzyme solution having a final concentration of 1.7 nM. The enzymatic reaction was activated by using 10 mM magnesium acetate and 10 μM [γ-^33P]-ATP to form an Mg/ATP mixed solution.
In a 384-well plate, the compound working solution was added to final concentrations of 10000, 3000, 1000, 300, 100, 30, 10, 3, and 1 nM. Then different enzyme reaction solutions prepared according to the above conditions were added. The incubation was carried out for 40 minutes at room temperature. The test was terminated by the addition of a 0.5% phosphoric acid solution. 10 μL of the reaction solution was taken and dropped to the P30 filter paper. The filter paper was washed 4 times with 0.425% phosphoric acid solution and once with methanol, and then placed on a scintillation counter. The […] IC50 values were calculated using GraphPad 5.0 software.

IC50 [nM] | Structure (SMILES)
17 | COc1cc2nccc(Oc3ccc(NC(=O)c4cn(C(C)C)cc(-c5ccc(C)cc5)c4=O)nc3)c2cc1OC [Compound 1, N-(5-((6,7-dimethoxyquinolin-4-yl)oxy)pyridin-2-yl)-1-isopropyl-4-oxo-5-p-tolyl-1,4-dihydropyridin-3-carboxamide]
8 | COc1cc2nccc(Oc3ccc(NC(=O)c4cn(C(C)C)cc(-c5ccc(F)cc5)c4=O)nc3)c2cc1OC [Compound 14, N-(5-((6,7-dimethoxyquinolin-4-yl)oxy)pyridin-2-yl)-5-(4-fluorophenyl)-1-isopropyl-4-oxo-1,4-dihydropyridin-3-carboxamide]
11 | COc1cc2nccc(Oc3ccc(NC(=O)c4nn(C(C)C)cc(-c5ccc(F)cc5)c4=O)nc3)c2cc1OC [Compound 15, N-(5-((6,7-dimethoxyquinolin-4-yl)oxy)pyridin-2-yl)-5-(4-fluorophenyl)-1-isopropyl-4-oxo-1,4-dihydropyridazine-3-carboxamide]
13 | COc1cc2nccc(Oc3cnc(NC(=O)c4nn(C(C)C)cc(-c5ccc(F)cc5)c4=O)nc3)c2cc1OC [Compound 16, N-(5-((6,7-dimethoxyquinolin-4-yl)oxy)pyrimidine-2-yl)-5-(4-fluorophenyl)-1-isopropyl-4-oxo-1,4-dihydropyridazine-3-carboxamide]
17 | COc1cc2nccc(Oc3cnc(NC(=O)c4cn(C(C)C)cc(-c5ccc(F)cc5)c4=O)nc3)c2cc1OC [Compound 20, N-(5-((6,7-dimethoxyquinolin-4-y)oxy)pyrimidine-2-yl)-5-(4-fluorophenyl)-1-isopropyl-4-oxo-1,4-dihydropyridin-3-carboxamide]
5 | COc1cc2nccc(Oc3ccc(NC(=O)c4nn(C(C)C)cc(-c5ccc(F)cc5)c4=O)cn3)c2cc1OC [Compound 29, N-(6-((6,7-dimethoxyquinolin-4-yl)oxy)pyridin-3-yl)-1-isopropyl-4-oxo-5-para-fluorophenyl-1,4-dihydropyridazine-3-carboxamide]
7 | COc1cc2nccc(Oc3ccc(NC(=O)c4cn(C5CC5)cc(-c5ccc(F)cc5)c4=O)nc3)c2cc1OC [Compound 30, N-(5-((6,7-dimethoxyquinolin-4-yl)oxy)pyridin-2-yl)-1-cyclopropyl-4-oxo-5-para-fluorophenyl-1,4-hydropyridin-3-carboxamide]
4 | COc1cc2nccc(Oc3ccc(NC(=O)c4nn(C5CC5)cc(-c5ccc(F)cc5)c4=O)nc3)c2cc1OC [Compound 31]
5 | COc1cc2nccc(Oc3cnc(NC(=O)c4cn(C5CC5)cc(-c5ccc(F)cc5)c4=O)nc3)c2cc1OC [Compound 32, 1-cyclopropyl-N-(5-((6,7-dimethoxyquinolin-4-yl)oxy)pyrimidine-2-yl)-5-(4-fluorophenyl)-4-oxo-1,4-dihydropyridin-3-carboxamide]
2 | COc1cc2nccc(Oc3cnc(NC(=O)c4nn(C5CC5)cc(-c5ccc(F)cc5)c4=O)nc3)c2cc1OC [Compound 33]
5 | COc1cc2nccc(Oc3ncc(NC(=O)c4nn(C(C)C)cc(-c5ccc(F)cc5)c4=O)cn3)c2cc1OC [Compound 34, N-(2-((6,7-dimethoxyquinolin-4-yl)oxy)pyrimidine-5-yl)-5-para-fluorophenyl-1-isopropyl-4-oxo-1,4-dihydropyridazine-3-carboxamide]
3 | COc1cc2nccc(Oc3ccc(NC(=O)c4nn(C5CC5)cc(-c5ccc(F)cc5)c4=O)cn3)c2cc1OC [Compound 36]
2 | COc1cc2nccc(Oc3ncc(NC(=O)c4nn(C5CC5)cc(-c5ccc(F)cc5)c4=O)cn3)c2cc1OC [Compound 37, 1-cyclopropyl-N-(2-((6,7-dimethoxyquinolin-4-yl)oxy)pyrimidine-5-yl)-5-para-fluorophenyl-4-oxo-1,4-dihydropyridazine-3-carboxamide]
3 | COc1cc2nccc(Oc3ccc(NC(=O)c4cn(C(C)C)nc(-c5ccc(F)cc5)c4=O)cn3)c2cc1OC [Compound 38, N-(6-((6,7-dimethoxyquinolin-4-yl)oxy)pyridin-3-yl)-6-para-fluorophenyl-2-isopropyl-5-oxo-2,5-dihydropyridazine-4-carboxamide]
4 | COc1cc2nccc(Oc3cnc(NC(=O)c4cn(C(C)C)nc(-c5ccc(F)cc5)c4=O)nc3)c2cc1OC [Compound 39, N-(5-((6,7-dimethoxyquinolin-4-yl)oxy)pyrimidine-2-yl)-6-(4-fluorophenyl)-2-isopropyl-5-oxo-2,5-dihydropyridazine-4-carboxamide]
4 | COc1cc2nccc(Oc3ncc(NC(=O)c4cn(C(C)C)nc(-c5ccc(F)cc5)c4=O)cn3)c2cc1OC [Compound 40, N-(2-((6,7-dimethoxyquinolin-4-yl)oxy)pyrimidine-5-yl)-6-(4-fluorophenyl)-2-isopropyl-5-oxo-2,5-dihydropyridazine-4-carboxamide]
12 | COc1cc2nccc(Oc3ccc(NC(=O)c4cn(C(C)C)nc(-c5ccc(F)cc5)c4=O)nc3)c2cc1OC [Compound 41, N-(5-((6,7-dimethoxyquinolin-4-yl)oxy)pyridin-2-yl)-6-(4-fluorophenyl)-2-isopropyl-5-oxo-2,5-dihydropyridazine-4-carboxamide]
